A short description of experiment [1]: cells. Type of experiment: functional.
Experiment [2] has as its target Low molecular weight phosphotyrosine protein phosphatase (Homo sapiens, UniProt P24666). Type of experiment: functional. The settings on record: read-out: IC50_Mean.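 Also: Dose-response confirmation assay measuring inhibition of LMPTP enzyme activity by fluorescence intensity read-out.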
For experiment [3], the target named is Hepatocyte nuclear factor 4-alpha (Homo sapiens, UniProt P41235). It counts as functional, cell-based.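 Also: biochemical luminescence-based dose-response counterscreen measuring inhibition of HNF4 dimerization, run alongside a screen for blockers of ABHD5–perilipin-5 interaction; split luciferase complementation of HNF4 fusion proteins in cell lysate measuring dimerization.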
Experiment [4] deals with Fructose-bisphosphate aldolase (Mycobacterium tuberculosis, UniProt P9WQA3). In words: Fluorescence-based biochemical high throughput dose response assay for inhibitors of the fructose-bisphosphate aldolase (FBA) of M. tuberculosis. It counts as functional.
A further experiment has as its target Beta Lactamase (Pseudomonas aeruginosa, UniProt Q932Y6). Kind of experiment: beta-lactamase reporter inhibitor potency, dose response, artefact control for TLR9-MyD88 binding inhibitor project, BLA reporter cells, FRET fluorescence (AID 588341).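 Also: cell based assay in CHO-K1 cells stably expressing beta-lactamase.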 Type of experiment: cell-based.
Experiment [5] in a line: HEK293T cell cytotoxicity, dose response, cytotoxicity control for HIV Vif inhibitor project, cherry-picks (AID 652208). Type of experiment: functional, cell-based.
The next experiment deals with CHO. In words: cytotoxicity in TLR9-MyD88 CHO cells, dose response, cytotoxicity control for TLR9-MyD88 binding inhibitor project, cell-based, luminescence (AID 588339).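 Also: CHO cells stably coexpressing TLR9 and MyD88 fusions from primary screen; compound exposure lasted 48 hours before viability readout.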 It counts as functional, hamster. The conditions noted are these: Cricetulus griseus.
Experiment [6] can be described thus: Luminescence Cell-Based Dose Retest to Confirm Inhibitors of Cancer Stem Cells. [Related pubchem assays (depositor defined):AID2717, AID2721]. Type of experiment: functional. The settings on record: Homo sapiens.
A short description of experiment [7]: Luminescence Cell-Based Dose Response HTS to Identify Activators of Luciferase Translation or Activity in H4 […] Cells. [Related pubchem assays: 1829 (Project Summary), 1814 (Primary HTS)]. Type of experiment: functional.
Experiment [8] can be described thus: inhibitors of intracellular T. cruzi replication, confirmation, NIH3T3 host cells, beta-gal luminescence (AID 2044).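 Also: intracellular parasites grown in NIH/3T3 mouse fibroblasts as host cells; luminescent beta-galactosidase reporter signal from transgenic T. cruzi replicating inside host cells; inhibitors lower the luminescence signal.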 It counts as functional, cell-based.
Experiment [9] can be described thus: cells. It counts as functional, cell-based.
The subject of another experiment is INS1. In words: beta cell apoptosis inhibitors, cytokine rescue, dose response, luminescence, retest (AID 449756).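 Also: cell death triggered by IL-1 beta plus TNF-alpha plus IFN-gamma mixture; protective hits raise ATP signal compared with cytokine alone wells.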 Type of experiment: functional, cell-based. The settings on record: Rattus norvegicus.
Experiment [10] is described as follows: Counterscreen for activators of the function of SWI/SNF related, matrix associated, actin dependent regulator of chromatin, subfamily a, member 2 (SMARCA2, BRM): Luminescence-based cell-based high throughput dose response assay to identify non-selective compounds using the VP16 reporter assay. Type of experiment: functional.
Experiment [11] in a line: Luminescence Cell-Based Dose Confirmation HTS to Identify Activators of 5'UTR Stem-Loop Driven Alpha-Synuclein mRNA Translation in H4 Neuroglioblastoma Cells. [Related pubchem assays: 1829 (Project Summary), 1814 (Primary HTS)]. It counts as functional.
Experiment [12] concerns the target SWI/SNF-related matrix-associated actin-dependent regulator of chromatin subfamily A member 2 (Homo sapiens, UniProt P51531). Kind of experiment: Luminescence-based cell-based high throughput dose response assay to identify activators of the function of SWI/SNF related, matrix associated, actin dependent regulator of chromatin, subfamily a, member 2 (SMARCA2, BRM). Type of experiment: functional.

Experiment [13] is described as follows: cytotoxicity toward NIH3T3 fibroblasts, dose response, counter-screen, cell-based, ATP luminescence, mouse fibroblasts (AID 2010).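 Also: cells exposed to compound for about 90 hours before reading.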 Type of experiment: functional. On the technique in general: A counterscreen serves to expose hits that act by an unwanted route or on another target.
The nature of experiment [14]: cells. It counts as functional, cell-based. This is another data set of the same source.
Experiment [15] has as its target DNA (cytosine-5)-methyltransferase 1 (Homo sapiens, UniProt P26358). In words: DNMT1 methyltransferase inhibitors, confirmation, biochemical, fluorescent molecular beacon (AID 602386). Type of experiment: functional.
The target of experiment [16] is T1, Short transient receptor potential channel 4 (Mus musculus, UniProt Q9QUQ5).
T1 sequence (Q9QUQ5 whole entry): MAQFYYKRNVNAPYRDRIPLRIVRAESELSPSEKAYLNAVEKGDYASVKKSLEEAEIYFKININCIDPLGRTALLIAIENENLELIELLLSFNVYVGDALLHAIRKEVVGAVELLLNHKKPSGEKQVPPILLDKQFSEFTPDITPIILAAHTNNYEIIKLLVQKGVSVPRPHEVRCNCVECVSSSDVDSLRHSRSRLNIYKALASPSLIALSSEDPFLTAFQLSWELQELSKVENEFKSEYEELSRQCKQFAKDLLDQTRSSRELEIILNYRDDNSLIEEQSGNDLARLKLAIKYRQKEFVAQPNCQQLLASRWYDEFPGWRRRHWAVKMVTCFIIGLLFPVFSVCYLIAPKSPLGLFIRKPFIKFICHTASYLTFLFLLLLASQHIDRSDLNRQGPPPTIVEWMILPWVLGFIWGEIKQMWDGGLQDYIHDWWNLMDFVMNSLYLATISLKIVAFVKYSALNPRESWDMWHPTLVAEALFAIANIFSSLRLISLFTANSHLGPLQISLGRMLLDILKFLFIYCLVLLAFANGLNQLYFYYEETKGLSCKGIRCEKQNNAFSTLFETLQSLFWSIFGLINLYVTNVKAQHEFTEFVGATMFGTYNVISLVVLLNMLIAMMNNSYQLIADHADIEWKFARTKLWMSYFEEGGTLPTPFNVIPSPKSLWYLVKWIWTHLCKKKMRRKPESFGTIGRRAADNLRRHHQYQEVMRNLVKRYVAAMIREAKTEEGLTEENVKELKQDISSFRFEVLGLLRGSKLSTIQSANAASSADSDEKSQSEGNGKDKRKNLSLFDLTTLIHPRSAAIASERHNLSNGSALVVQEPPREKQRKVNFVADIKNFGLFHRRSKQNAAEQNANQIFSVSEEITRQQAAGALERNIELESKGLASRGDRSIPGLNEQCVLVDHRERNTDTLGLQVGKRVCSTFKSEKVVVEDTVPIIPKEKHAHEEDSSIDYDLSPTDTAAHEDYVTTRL
In words: mouse TRPC4 channel inhibitors, dose response, cell-based, HEK293 TRPC4/mu-opioid, Fluo-4 calcium (AID 434942).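 Also: potency of inhibitors blocking the TRPC4 calcium response.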 It counts as functional.

A further experiment concerns H4. Kind of experiment: Luminescence Cell-Based Dose Response HTS to Identify Activators of 5'UTR Stem-Loop Driven Prion Protein mRNA Translation in H4 Neuroglioblastoma Cells. [Related pubchem assays: 1829 (Project Summary), 1814 (Primary HTS)]. Type of experiment: functional. The settings on record: Homo sapiens.
In experiment [17] the target is T2, Aryl hydrocarbon receptor (Homo sapiens, UniProt P35869).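 Also: confirmatory quantitative high-throughput screen measuring activation of the AhR signaling pathway.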
T2 sequence (P35869 whole entry): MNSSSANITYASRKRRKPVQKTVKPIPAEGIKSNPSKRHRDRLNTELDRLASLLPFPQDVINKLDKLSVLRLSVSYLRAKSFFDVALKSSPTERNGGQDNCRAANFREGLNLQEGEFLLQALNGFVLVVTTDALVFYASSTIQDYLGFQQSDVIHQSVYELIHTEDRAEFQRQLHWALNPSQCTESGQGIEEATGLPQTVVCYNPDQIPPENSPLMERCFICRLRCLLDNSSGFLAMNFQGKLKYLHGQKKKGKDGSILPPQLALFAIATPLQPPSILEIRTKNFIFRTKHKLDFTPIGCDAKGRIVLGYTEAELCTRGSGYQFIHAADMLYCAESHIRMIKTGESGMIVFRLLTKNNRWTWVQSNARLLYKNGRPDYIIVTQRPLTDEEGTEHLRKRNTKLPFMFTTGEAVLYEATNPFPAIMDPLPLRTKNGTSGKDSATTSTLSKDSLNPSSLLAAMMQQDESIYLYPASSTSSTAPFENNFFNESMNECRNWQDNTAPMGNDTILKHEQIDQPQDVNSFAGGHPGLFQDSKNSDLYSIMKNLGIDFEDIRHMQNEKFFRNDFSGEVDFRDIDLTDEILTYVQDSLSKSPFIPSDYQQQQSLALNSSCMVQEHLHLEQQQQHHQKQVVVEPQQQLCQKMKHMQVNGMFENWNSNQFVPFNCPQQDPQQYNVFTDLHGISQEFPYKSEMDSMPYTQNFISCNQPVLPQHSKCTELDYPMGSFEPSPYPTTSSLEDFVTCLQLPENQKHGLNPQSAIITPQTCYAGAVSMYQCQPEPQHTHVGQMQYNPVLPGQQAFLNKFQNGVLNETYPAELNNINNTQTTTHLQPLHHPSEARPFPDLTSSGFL
The conditions noted are these: Potency.

Experiment [18] has as its target Voltage-gated inwardly rectifying potassium channel KCNH2 (Homo sapiens, UniProt Q12809). The settings on record: Potency.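 Also: confirmatory quantitative high-throughput screen measuring inhibition of hERG channel activity.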
Experiment [19] addresses Photoreceptor-specific nuclear receptor (Homo sapiens, UniProt Q9Y5X4). Type of experiment: functional, cell-based.
In experiment [20] the target is T3, Sentrin-specific protease 1 (Homo sapiens, UniProt Q9P0U3).
T3 sequence (Q9P0U3 whole entry): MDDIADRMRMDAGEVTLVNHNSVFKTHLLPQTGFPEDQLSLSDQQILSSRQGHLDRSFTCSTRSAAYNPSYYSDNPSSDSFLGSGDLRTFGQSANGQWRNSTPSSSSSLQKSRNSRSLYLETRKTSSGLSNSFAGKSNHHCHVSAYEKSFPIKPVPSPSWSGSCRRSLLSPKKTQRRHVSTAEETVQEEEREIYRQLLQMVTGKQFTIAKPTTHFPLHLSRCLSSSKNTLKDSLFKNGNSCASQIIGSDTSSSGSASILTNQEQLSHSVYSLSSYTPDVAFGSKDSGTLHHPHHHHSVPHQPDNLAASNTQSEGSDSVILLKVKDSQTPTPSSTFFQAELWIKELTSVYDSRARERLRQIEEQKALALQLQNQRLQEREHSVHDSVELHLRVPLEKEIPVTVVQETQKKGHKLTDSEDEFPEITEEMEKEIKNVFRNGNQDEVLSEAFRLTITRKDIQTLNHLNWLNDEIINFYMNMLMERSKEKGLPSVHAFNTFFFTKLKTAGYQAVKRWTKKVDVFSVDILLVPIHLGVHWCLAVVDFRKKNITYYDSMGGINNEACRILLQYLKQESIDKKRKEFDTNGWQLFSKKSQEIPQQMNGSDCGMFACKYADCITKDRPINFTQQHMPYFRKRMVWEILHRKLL
Kind of experiment: potency of human SENP1 inhibitors, dose response, biochemical, kinetic FRET (AID 651697). It counts as functional. The settings on record: read-out: IC50_Mean.

In experiment [21] the target is T3, Sentrin-specific protease 1. In words: Dose response confirmation of small molecule inhibitors of the catalytic domain of the SUMO protease, SENP1 in a FRET assay. Type of experiment: functional. The settings on record: read-out: IC50_Mean.
The next experiment concerns the target Beta-galactosidase (Escherichia coli, UniProt Q8VNN2). In words: Dose response counterscreen for EBI2 assay utilizing the enzyme, b-galactosidase. Type of experiment: functional.

Ten compounds from ChEMBL document CHEMBL1201862, “PubChem BioAssay data set” (2004) can be followed below.

Active and inactive are the calls of the source.

As usually defined, the AC50 is the midpoint of the concentration-response curve, whichever way the signal moves. In general, EC50 refers to the concentration that produces a half-maximal response.

Sequence of Hepatocyte nuclear factor 4-alpha (P41235 whole entry, the tested form may be a part): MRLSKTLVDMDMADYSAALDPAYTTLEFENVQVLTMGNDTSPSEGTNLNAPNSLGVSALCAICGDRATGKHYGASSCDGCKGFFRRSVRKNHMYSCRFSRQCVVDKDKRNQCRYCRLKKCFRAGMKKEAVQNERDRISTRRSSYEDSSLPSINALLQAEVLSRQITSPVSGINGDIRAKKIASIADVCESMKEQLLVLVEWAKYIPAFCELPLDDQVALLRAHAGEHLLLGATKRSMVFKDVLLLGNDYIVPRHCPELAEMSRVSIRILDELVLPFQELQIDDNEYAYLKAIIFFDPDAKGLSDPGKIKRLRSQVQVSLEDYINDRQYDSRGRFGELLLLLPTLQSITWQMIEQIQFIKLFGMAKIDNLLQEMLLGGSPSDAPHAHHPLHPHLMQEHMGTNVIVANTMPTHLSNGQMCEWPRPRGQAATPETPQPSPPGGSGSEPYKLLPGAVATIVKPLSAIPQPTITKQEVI
Sequence of DNA (cytosine-5)-methyltransferase 1 (P26358 whole entry): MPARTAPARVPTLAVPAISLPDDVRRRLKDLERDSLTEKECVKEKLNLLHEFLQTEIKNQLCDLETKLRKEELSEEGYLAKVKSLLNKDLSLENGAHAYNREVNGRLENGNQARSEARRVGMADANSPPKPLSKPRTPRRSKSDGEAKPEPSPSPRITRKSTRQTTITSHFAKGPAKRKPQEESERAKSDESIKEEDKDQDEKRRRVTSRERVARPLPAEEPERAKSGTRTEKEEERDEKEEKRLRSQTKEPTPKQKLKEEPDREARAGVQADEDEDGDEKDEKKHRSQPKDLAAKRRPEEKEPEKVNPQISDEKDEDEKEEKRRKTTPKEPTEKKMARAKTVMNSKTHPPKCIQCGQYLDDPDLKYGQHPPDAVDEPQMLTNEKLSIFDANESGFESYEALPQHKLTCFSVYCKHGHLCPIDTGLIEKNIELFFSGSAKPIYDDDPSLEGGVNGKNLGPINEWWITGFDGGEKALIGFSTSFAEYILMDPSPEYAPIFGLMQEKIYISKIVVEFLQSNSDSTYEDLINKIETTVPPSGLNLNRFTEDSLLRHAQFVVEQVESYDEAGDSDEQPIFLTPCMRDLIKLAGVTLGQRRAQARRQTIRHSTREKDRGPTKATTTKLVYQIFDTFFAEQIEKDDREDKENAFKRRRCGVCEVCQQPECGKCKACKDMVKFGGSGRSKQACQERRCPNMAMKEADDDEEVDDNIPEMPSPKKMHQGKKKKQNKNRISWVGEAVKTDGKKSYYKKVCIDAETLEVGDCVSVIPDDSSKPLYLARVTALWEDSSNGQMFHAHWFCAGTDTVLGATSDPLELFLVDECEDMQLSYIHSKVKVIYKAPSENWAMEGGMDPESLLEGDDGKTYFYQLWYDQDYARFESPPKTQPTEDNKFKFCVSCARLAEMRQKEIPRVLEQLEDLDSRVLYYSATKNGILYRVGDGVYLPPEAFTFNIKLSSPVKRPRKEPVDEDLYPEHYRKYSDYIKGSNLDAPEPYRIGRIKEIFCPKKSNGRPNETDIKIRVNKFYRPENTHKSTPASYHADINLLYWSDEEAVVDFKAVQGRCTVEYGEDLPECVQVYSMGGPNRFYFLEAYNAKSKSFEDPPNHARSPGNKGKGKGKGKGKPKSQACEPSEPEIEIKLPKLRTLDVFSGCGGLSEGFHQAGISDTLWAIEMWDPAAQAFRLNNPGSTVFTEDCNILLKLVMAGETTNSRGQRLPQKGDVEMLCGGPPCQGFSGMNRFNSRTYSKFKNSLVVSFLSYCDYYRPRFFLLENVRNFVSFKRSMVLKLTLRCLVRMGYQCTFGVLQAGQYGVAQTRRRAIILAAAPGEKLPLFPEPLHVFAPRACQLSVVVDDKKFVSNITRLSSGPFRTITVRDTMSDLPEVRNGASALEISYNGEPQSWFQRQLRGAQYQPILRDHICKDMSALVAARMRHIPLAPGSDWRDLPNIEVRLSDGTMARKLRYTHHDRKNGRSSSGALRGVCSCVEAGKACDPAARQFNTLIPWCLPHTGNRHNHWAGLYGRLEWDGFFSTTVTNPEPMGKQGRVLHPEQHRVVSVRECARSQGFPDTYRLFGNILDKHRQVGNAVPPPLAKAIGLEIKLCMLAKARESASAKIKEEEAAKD
Sequence of Voltage-gated inwardly rectifying potassium channel KCNH2 (Q12809 whole entry): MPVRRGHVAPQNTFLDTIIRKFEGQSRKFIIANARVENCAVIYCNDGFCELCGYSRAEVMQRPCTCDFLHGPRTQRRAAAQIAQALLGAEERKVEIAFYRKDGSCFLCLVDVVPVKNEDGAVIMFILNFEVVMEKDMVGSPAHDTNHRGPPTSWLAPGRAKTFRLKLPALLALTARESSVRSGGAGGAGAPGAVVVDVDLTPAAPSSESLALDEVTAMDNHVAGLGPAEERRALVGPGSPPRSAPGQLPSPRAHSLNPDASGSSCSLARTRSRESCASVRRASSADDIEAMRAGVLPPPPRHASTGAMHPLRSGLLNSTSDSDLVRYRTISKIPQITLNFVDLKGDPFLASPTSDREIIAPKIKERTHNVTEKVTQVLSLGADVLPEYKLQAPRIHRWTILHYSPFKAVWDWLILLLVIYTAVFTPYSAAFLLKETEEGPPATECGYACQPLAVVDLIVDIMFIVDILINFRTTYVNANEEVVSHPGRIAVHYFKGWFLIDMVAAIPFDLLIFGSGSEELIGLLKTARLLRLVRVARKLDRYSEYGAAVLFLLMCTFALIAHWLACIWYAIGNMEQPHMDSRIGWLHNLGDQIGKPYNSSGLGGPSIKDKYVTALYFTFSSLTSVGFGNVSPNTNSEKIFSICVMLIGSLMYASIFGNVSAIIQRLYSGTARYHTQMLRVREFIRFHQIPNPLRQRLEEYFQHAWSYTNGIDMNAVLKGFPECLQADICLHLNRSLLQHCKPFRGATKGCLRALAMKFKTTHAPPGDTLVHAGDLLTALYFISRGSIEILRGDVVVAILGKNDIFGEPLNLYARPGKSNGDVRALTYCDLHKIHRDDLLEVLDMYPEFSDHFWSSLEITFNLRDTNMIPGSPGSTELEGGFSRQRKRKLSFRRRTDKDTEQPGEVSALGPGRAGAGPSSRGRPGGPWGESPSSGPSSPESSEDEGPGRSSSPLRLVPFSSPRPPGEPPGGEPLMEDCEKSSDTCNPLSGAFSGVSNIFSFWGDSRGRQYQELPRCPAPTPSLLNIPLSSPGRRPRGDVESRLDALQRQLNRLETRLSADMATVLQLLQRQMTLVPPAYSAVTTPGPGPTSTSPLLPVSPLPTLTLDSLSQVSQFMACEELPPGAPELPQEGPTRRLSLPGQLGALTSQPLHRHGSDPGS
Sequence of Beta-galactosidase (Q8VNN2 whole entry): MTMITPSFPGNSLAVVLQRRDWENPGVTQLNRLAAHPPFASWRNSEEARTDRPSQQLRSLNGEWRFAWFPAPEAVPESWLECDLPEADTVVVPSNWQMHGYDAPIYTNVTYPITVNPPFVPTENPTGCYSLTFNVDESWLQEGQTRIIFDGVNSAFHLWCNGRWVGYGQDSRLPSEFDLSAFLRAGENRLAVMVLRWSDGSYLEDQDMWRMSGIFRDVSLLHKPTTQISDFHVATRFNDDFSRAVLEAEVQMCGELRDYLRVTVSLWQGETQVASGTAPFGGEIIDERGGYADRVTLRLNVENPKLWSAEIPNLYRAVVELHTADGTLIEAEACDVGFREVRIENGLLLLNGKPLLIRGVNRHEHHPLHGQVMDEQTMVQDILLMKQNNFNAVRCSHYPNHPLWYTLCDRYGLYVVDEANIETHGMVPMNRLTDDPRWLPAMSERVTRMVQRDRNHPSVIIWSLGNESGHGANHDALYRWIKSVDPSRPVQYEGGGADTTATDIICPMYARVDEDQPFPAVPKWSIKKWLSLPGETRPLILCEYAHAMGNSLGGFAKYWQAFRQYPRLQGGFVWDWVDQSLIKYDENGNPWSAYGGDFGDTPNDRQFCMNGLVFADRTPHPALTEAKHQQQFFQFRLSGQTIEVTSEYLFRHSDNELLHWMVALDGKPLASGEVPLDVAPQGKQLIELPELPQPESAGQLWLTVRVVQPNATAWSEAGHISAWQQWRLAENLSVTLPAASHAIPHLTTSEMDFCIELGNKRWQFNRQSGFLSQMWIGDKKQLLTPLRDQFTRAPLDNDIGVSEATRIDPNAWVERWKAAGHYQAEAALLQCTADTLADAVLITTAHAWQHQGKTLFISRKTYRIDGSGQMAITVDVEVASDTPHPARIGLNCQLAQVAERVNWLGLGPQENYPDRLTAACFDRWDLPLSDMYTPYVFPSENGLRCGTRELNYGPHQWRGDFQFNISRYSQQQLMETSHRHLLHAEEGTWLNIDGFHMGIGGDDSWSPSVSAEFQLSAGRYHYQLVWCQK
Sequence of Low molecular weight phosphotyrosine protein phosphatase (P24666 whole entry, the tested form may be a part): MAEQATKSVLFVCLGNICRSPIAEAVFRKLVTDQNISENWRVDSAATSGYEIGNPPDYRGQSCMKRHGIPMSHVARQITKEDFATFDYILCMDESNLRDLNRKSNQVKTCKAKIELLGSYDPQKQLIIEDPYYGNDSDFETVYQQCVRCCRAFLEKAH
Sequence of Fructose-bisphosphate aldolase (P9WQA3 whole entry): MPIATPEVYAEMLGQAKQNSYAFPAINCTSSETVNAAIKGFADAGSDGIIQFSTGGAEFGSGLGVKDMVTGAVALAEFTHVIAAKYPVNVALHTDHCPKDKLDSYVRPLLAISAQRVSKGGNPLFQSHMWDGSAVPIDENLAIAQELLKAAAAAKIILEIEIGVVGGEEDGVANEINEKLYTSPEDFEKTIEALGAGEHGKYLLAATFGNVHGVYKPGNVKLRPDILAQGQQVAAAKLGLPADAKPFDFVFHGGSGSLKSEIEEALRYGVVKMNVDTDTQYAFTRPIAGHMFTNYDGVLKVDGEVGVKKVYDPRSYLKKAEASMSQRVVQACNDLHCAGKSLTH
Sequence of Beta Lactamase (Q932Y6 whole entry): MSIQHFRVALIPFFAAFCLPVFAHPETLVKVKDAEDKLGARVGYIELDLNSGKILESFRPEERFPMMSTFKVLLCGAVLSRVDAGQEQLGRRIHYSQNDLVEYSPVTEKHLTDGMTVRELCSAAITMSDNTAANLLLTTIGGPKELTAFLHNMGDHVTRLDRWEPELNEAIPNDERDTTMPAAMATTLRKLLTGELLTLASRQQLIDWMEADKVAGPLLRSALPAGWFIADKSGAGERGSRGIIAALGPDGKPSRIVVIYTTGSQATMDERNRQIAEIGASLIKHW

In the case of `CCn1cc(C(=O)O)c(=O)c2cc(F)c(N3CCN(C(=S)NC(=O)c4ccccc4)CC3)cc21`, the IC50 was 42.6 µM (active) in the experiment “cells [1]” and 15.4 µM (active) in experiment [2].

For the compound `COc1ccc(C(C(=O)Nc2ccc3c(c2)OCCO3)n2c(=O)c(-c3ccco3)nc3ccccc32)cc1` (configuration not stated), in [3], the IC50 was 12.5 µM (inactive).

With `Cc1ccc(-c2cc(C(=O)O)c3cc(Br)ccc3n2)s1`, the IC50 in [4] was > 1.11 µM (active).

With `COc1ccc(-c2nc3cnccn3c2NC2CCCCC2)cc1-c1cccc(Cl)c1`, the values for the IC50 on Beta Lactamase and in the experiment on CHO were 6.78 µM (active) and 25.4 µM (inactive), respectively. Moreover, the AC50 in experiment [5] is 39.2 µM (active); in [6], 4.23 µM (active).

For `CCN(CC)CCn1c2ccccc2c2cnc(N)c(C#N)c21`, the EC50 is 21 µM (active) in experiment [7]; 1.21 µM (active) in experiment [8]; > 350 µM (not active) in the experiment “cells [9]”; > 91.2 µM (inactive) in [10]; 10.2 µM (active) in experiment [11]; > 3.38 µM (active) in experiment [12]. Moreover, the half-maximal effective concentration (EC50) is 9.47 µM (active) in experiment [13], > 350 µM (not active) in “cells [14]”, 4.73 µM (active) in [16] and > 120 µM (not active) in the experiment with H4. In the experiment with INS1, the AC50 was 3.09 µM (active). In addition, the IC50 in experiment [15] was > 99 µM (inactive).

With `[O-]/[N+](=N/c1ccccc1)c1ccccc1`, the values for the concentration at half-maximal activity (AC50) in [17] and in experiment [18] were 56.2 µM (inconclusive) and 50.1 µM (inconclusive), respectively.

In the case of `COc1ccc(NC(=O)c2sc(=O)n(Cc3ccc(F)c(Cl)c3)c2C)cc1OC`, in [19], the IC50 is 8.01 µM (active).

On to `CCOc1cccc(/C=C2\NC(=S)N(c3ccccc3)C2=O)c1O`, for which the IC50 in [20] is 80 µM (inactive); in experiment [21], 20 µM (inactive).

For the compound `CCCCCCC=C1CCC(CN2CCCC2)C1=O` (configuration not stated), the IC50 in [3] was 2.25 µM (active).

`CCc1cc2cc(C(=O)N3CCN(Cc4ccccc4)CC3)sc2s1`: on Beta-galactosidase, the IC50 was > 80 µM (inactive).
